The values below come from patent US12351574B2, “Selective ligands for modulation of GIRK channels” (Northeastern University, priority 2018, dated 2025).

The target of series [1] is T1, GIRK1-S65Y with GIRK4 (Homo sapiens, UniProt P48544+P48549, S65Y).
T1 construct: expressed in transfected cells; host or cells: HEK293-T cells
T1 sequence (P48549 1-501 S65Y): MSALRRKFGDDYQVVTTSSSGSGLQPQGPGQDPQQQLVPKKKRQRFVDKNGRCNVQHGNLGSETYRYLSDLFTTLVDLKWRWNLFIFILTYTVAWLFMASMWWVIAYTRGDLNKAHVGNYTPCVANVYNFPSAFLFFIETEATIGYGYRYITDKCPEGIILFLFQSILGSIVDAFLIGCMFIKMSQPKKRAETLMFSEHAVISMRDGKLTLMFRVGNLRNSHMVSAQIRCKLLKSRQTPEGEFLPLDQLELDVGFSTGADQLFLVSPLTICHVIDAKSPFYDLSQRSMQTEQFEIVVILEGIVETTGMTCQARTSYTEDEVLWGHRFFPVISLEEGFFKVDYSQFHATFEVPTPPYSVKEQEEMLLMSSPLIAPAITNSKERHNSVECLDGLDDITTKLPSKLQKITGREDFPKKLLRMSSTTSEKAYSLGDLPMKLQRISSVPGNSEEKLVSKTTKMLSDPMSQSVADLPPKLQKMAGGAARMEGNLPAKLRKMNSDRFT
T1 sequence (P48544 1-419): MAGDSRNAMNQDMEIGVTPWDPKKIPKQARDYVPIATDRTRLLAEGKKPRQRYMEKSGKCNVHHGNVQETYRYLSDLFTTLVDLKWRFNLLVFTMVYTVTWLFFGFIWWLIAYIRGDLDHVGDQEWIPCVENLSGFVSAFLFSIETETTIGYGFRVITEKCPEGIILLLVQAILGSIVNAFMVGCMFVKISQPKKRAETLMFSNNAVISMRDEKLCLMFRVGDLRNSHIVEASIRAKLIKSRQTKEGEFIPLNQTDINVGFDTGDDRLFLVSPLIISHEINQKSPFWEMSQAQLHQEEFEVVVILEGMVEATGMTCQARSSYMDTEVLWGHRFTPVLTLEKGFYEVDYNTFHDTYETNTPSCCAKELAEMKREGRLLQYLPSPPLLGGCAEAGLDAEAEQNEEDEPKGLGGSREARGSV
Description: 5-ptaseOCRL current inhibition, GIRK1/4 channels containing GIRK1-S65Y subunits. The format is cell-based. An excerpt: To identify changes in specific channel residue interactions with PIP2 upon ligand binding, the inventors carried out Principal Component Analysis (PCA) in the presence and absence of ML297 and GAT1508. The PCA analysis implicated changes in the slide (or interfacial) helix interactions with PIP2 upon ligand binding. Polar interactions could be formed between GIRK2^FD(Y76) and GIRK4^FD(Y71) with the P(4,5) of PIP2 when ML297 was bound to the same subunit (FIG. 39 top, FIG. 40). In contrast, when GAT1508 was bound this interaction was retained by GIRK2^FD but not GIRK4^FD (FIG. 39 bottom, FIG. 40). The corresponding GIRK1(S65) residue (FIG. 41, highlighted with vertical rectangle) could be serving the same role in stabilizing the phosphoinositol headgroup for interactions with non-ligand binding subunits. As polar residues, both Ser and Tyr could form H-bond interactions with PIP2. […]
Patch-clamp recording: Whole-cell currents were recorded with an Axopatch 200B amplifier (Molecular Devices) controlled via a USB-interface (National Instruments) using WinWCP software (University of Strathclyde). […] The barium-sensitive component of the current, observed when cells were perfused with the high-K^+ buffer, was analyzed and was determined by perfusing 5 mM BaCl2 in the high-K^+ buffer at the end of each experiment. […]

Series [2] can be described thus: cardiovascular radiotelemetry in freely moving rats. It counts as in vivo, rat. The settings on record: 30 mg/kg. Here is the method:
Cardiovascular experiments: Radiotelemetry probes [Cat. no. HD-S11, Data Sciences International, St. Paul, MN, United States] were surgically implanted into the peritoneal cavity and sutured to the muscle wall in order to assess general motor activity and temperature. A pressure transducer was implanted into the femoral artery to assess cardiovascular responses [i.e., mean arterial blood pressure (MAP) and heart rate (HR)]. Animals were injected with selected compounds following a 10 min baseline period and data points were analayzed between 20 min and 60 min after injection. This allowed us to investigate ligand effects without confounding effects of animal handling or the injection itself and to allow the ligand to cross the blood-brain barrier.

As for `Cc1cc(NC(=O)Nc2ccc(Br)s2)n(-c2ccccc2)n1` [GAT1508, 1-(5-bromothiophen-2-yl)-3-(3-methyl-1-phenyl-1H-pyrazol-5-yl)urea], the “τ of current-inhibition (in words)” value in series [1] is on record as “not statistically increased”. In addition, in series [2], the “change in heart rate (HR) (in words)” value is reported as “no significant changes”, the “change in locomotor activity (LA) (in words)” value is recorded as “no significant changes” and the “change in mean arterial pressure (MAP) (in words)” value is reported as “no significant changes”.

`Cc1cc(NC(=O)Nc2ccc(F)c(F)c2)n(-c2ccccc2)n1` [ML297, reference compound]: in series [1], the “τ of current-inhibition (in words)” value is on record as “not statistically increased”. In series [2], the “change in body temperature (BT) (in words)” value was “without affecting significantly”, the “change in heart rate (HR) (in words)” value is listed as “paradoxical long-lasting increases”, the “change in locomotor activity (LA) (in words)” value is “without affecting significantly” and the “change in mean arterial pressure (MAP) (in words)” value is reported as “paradoxical long-lasting increases”.
